test system: human hepatoma Huh-7 cell line harboring a HCV replicon; assay: HCV replicon assay (inhibition of viral replication, luciferase readout); type: cell-based; details: Hepatitis C virus, 72 h, Huh-7 HCV replicon cells, 3 days incubation
Outline: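 Read-outs: luciferase luminescence for replication inhibition, corrected by ITMN-191 (100% inhibition) wells, and calcein AM fluorescence for cytotoxicity. Cells were treated for 3 days at 37 °C with ten 3-fold compound dilutions in 0.44% final DMSO. Percent inhibition relative to DMSO was fitted with a Hill equation to give EC50 and CC50.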

Structure (SMILES) | inhibition at 2 µM [%]
CC(C)(C)C#Cc1cc(N(C(=O)[C@H]2CC[C@H](C)CC2)[C@H]2CC[C@@H](Oc3cccnc3)CC2)c(C(=O)O)s1 [Compound 180, 5-(3,3-Dimethylbut-1-ynyl)-3-(4-methyl-N-(4-(pyridin-3-yloxy)cyclohexyl)cyclohexanecarboxamido)thiophene-2-carboxylic acid] | 99.6
CC(C)(C)C#Cc1cc(N(C(=O)[C@H]2CC[C@H](C)CC2)[C@H]2CC[C@@H](Oc3ncccn3)CC2)c(C(=O)O)s1 [Compound 181, 5-(3,3-Dimethylbut-1-ynyl)-3-(4-methyl-N-(4-(pyrimidin-2-yloxy)cyclohexyl)cyclohexanecarboxamido)thiophene-2-carboxylic acid] | 98.3
CC(C)(C)C#Cc1cc(N(C(=O)[C@H]2CC[C@H](C)CC2)[C@H]2CC[C@@H](Oc3cnc(Cl)cn3)CC2)c(C(=O)O)s1 [Compound 182, 3-(N-(4-(5-Chloropyrazin-2-yloxy)cyclohexyl)-4-methylcyclohexanecarboxamido)-5-(3,3-dimethylbut-1-ynyl)thiophene-2-carboxylic acid] | 99
CC(C)(C)C#Cc1cc(N(C(=O)[C@H]2CC[C@H](C)CC2)[C@H]2CC[C@@H](Oc3ccnnc3)CC2)c(C(=O)O)s1 [Compound 183, 5-(3,3-Dimethylbut-1-ynyl)-3-(4-methyl-N-(4-(pyridazin-4-yloxy)cyclohexyl)cyclohexanecarboxamido)thiophene-2-carboxylic acid] | 100
CC(C)(C)C#Cc1cc(N(C(=O)[C@H]2CC[C@H](C)CC2)[C@H]2CC[C@H](Oc3cnc(Cl)cn3)CC2)c(C(=O)O)s1 [Compound 184, 3-(N-(4-(5-Chloropyrazin-2-yloxy)cyclohexyl)-4-methylcyclohexanecarboxamido)-5-(3,3-dimethylbut-1-ynyl)thiophene-2-carboxylic acid] | 97.8
CC(C)(C)C#Cc1cc(N(C(=O)[C@H]2CC[C@H](C)CC2)[C@H]2CC[C@H](Oc3ccnnc3)CC2)c(C(=O)O)s1 [Compound 185, 5-(3,3-Dimethylbut-1-ynyl)-3-(4-methyl-N-(4-(pyridazin-4-yloxy)cyclohexyl)cyclohexanecarboxamido)thiophene-2-carboxylic acid] | 84.7
CC1CCC(C(=O)N(c2cc(C#CC(C)(C)C)sc2C(=O)O)C2CCC(Oc3cccc(CN4CCCC4)n3)CC2)CC1 (stereo not shown) [Compound 187, 3-[[-4-(6-pyrrolidin-1-ylmethyl-pyridin-2-yloxy)-cyclohexyl]-(4-methyl-cyclohexanecarbonyl)-amino]-5-(3,3-Dimethyl-but-1-ynyl)-thiophene-2-carboxylic acid] | 100
CC1CCC(C(=O)N(c2cc(C#CC(C)(C)C)sc2C(=O)O)[C@H]2CC[C@H](Oc3cccc(CN4CCOCC4)n3)CC2)CC1 (stereo partly shown) [Compound 188, 3-[[-4-(6-morpholin-1-ylmethyl-pyridin-2-yloxy)-cyclohexyl]-(4-methyl-cyclohexanecarbonyl)-amino]-5-(3,3-Dimethyl-but-1-ynyl)-thiophene-2-carboxylic acid] | 100
CC1CCC(C(=O)N(c2cc(C#CC(C)(C)C)sc2C(=O)O)[C@H]2CC[C@H](Oc3cc(CN4CCCC4=O)ccn3)CC2)CC1 (stereo partly shown) [Compound 189, 3-[[-4-(4-pyrrolidin-2-one-1-ylmethyl-pyridin-2-yloxy)-cyclohexyl]-(4-methyl-cyclohexanecarbonyl)-amino]-5-(3,3-Dimethyl-but-1-ynyl)-thiophene-2-carboxylic acid] | 99.9
CC1CCC(C(=O)N(c2cc(C#CC(C)(C)C)sc2C(=O)O)[C@H]2CC[C@H](Oc3cc(CN4CCC(O)C4)ccn3)CC2)CC1 (stereo partly shown) [Compound 190, 3-[[-4-[4-(3-hydroxy-pyrrolidin-1-ylmethyl)-pyridin-2-yloxy]-cyclohexyl]-(4-methyl-cyclohexanecarbonyl)-amino]-5-(3,3-Dimethyl-but-1-ynyl)-thiophene-2-carboxylic acid] | 100
CC1CCC(C(=O)N(c2cc(C#CC(C)(C)C)sc2C(=O)O)[C@H]2CC[C@H](Oc3cc(CN(C)CCO)ccn3)CC2)CC1 (stereo partly shown) [Compound 191, 3-[[-4-[4-{[(2-hydroxy-ethyl)-methyl-amino]-1-ylmethyl}-pyridin-2-yloxy]-cyclohexyl]-(4-methyl-cyclohexanecarbonyl)-amino]-5-(3,3-Dimethyl-but-1-ynyl)-thiophene-2-carboxylic acid] | 100
CC1CCC(C(=O)N(c2cc(C#CC(C)(C)C)sc2C(=O)O)[C@H]2CC[C@H](Oc3cncc(CN(C)C)c3)CC2)CC1 (stereo partly shown) [Compound 192, 3-[[-4-(5-dimethylaminomethyl-pyridin-3-yloxy)-cyclohexyl]-(4-methyl-cyclohexanecarbonyl)-amino]-5-(3,3-dimethyl-but-1-ynyl)-thiophene-2-carboxylic acid] | 100
CC1CCC(C(=O)N(c2cc(C#CC(C)(C)C)sc2C(=O)O)[C@H]2CC[C@H](Oc3cncc(CN4CCCC4)c3)CC2)CC1 (stereo partly shown) [Compound 193, 3-[[-4-(5-pyrrolidin-1-ylmethyl-pyridin-3-yloxy)-cyclohexyl]-(4-methyl-cyclohexanecarbonyl)-amino]-5-(3,3-dimethyl-but-1-ynyl)-thiophene-2-carboxylic acid] | 100
CC1CCC(C(=O)N(c2cc(C#CC(C)(C)C)sc2C(=O)O)[C@H]2CC[C@H](Oc3cncc(CN4CCOCC4)c3)CC2)CC1 (stereo partly shown) [Compound 194, 3-[[4-(5-morpholin-4-ylmethyl-pyridin-3-yloxy)-cyclohexyl]-(4-methyl-cyclohexanecarbonyl)-amino]-5-(3,3-dimethyl-but-1-ynyl)-thiophene-2-carboxylic acid] | 99.9
CC1CCC(C(=O)N(c2cc(C#CC(C)(C)C)sc2C(=O)O)[C@H]2CC[C@H](Oc3cnccc3CN3CCC(N(C)C)C3)CC2)CC1 (stereo partly shown) [Compound 195, 3-[[-4-(3-dimethylamino-pyrrolidin-1-ylmethyl-pyridin-3-yloxy)-cyclohexyl]-(4-methyl-cyclohexanecarbonyl)-amino]-5-(3,3-dimethyl-but-1-ynyl)-thiophene-2-carboxylic acid] | 99.7
CC1CCC(C(=O)N(c2cc(C#CC(C)(C)C)sc2C(=O)O)[C@H]2CC[C@H](Oc3cnccc3CN3CCCC3)CC2)CC1 (stereo partly shown) [Compound 196, 3-[[-4-(4-pyrrolidin-1-ylmethyl-pyridin-3-yloxy)-cyclohexyl]-(4-methyl-cyclohexanecarbonyl)-amino]-5-(3,3-dimethyl-but-1-ynyl)-thiophene-2-carboxylic acid] | 100
CC1CCC(C(=O)N(c2cc(C#CC(C)(C)C)sc2C(=O)O)[C@H]2CC[C@H](Oc3cnccc3CN3CCC3)CC2)CC1 (stereo partly shown) [Compound 197, 3-[[-4-(4-azetidin-1-ylmethyl-pyridin-3-yloxy)-cyclohexyl]-(4-methyl-cyclohexanecarbonyl)-amino]-5-(3,3-dimethyl-but-1-ynyl)-thiophene-2-carboxylic acid] | 99.9
CC1CCC(C(=O)N(c2cc(C#CC(C)(C)C)sc2C(=O)O)[C@H]2CC[C@H](Oc3cnccc3CN(C)C)CC2)CC1 (stereo partly shown) [Compound 198, 3-[[-4-(4-dimethylaminomethyl-pyridin-3-yloxy)-cyclohexyl]-(4-methyl-cyclohexanecarbonyl)-amino]-5-(3,3-dimethyl-but-1-ynyl)-thiophene-2-carboxylic acid] | 99.9
CC1CCC(C(=O)N(c2cc(C#CC(C)(C)C)sc2C(=O)O)[C@H]2CC[C@H](Oc3ccnc(CN4CCCC4)c3)CC2)CC1 (stereo partly shown) [Compound 199, 3-[[-4-(2-pyrrolidin-1-ylmethyl-pyridin-4-yloxy)-cyclohexyl]-(4-methyl-cyclohexanecarbonyl)-amino]-5-(3,3-dimethyl-but-1-ynyl)-thiophene-2-carboxylic acid] | 99.9
CC1CCC(C(=O)N(c2cc(C#CC(C)(C)C)sc2C(=O)O)[C@H]2CC[C@H](Oc3ccnc(CN(C)C)c3)CC2)CC1 (stereo partly shown) [Compound 200, 3-[[-4-(2-dimethylaminomethyl-pyridin-4-yloxy)-cyclohexyl]-(4-methyl-cyclohexanecarbonyl)-amino]-5-(3,3-dimethyl-but-1-ynyl)-thiophene-2-carboxylic acid] | 100
Cn1cnc(S(=O)(=O)N2CCC(N(c3cc(C#CC(C)(C)C)sc3C(=O)O)C(=O)[C@H]3CC[C@H](C)CC3)CC2)c1 [Compound 201, 5-(3,3-Dimethyl-but-1-ynyl)-3-{(4-methyl-cyclohexanecarbonyl)-[1-(1-methyl-1′-1-imidazole-4-sulfonyl)-piperidin-4-yl]-amino}-thiophene-2-carboxylic acid] | 100
CC(C)(C)C#Cc1cc(N(C(=O)[C@H]2CC[C@H](C)CC2)C2CCN(S(=O)(=O)c3nnc[nH]3)CC2)c(C(=O)O)s1 [Compound 202, 5-(3,3-Dimethyl-but-1-ynyl)-3-{(4-methyl-cyclohexanecarbonyl)-[1-(4H-[1,2,4]triazole-3-sulfonyl)-piperidin-4-yl]-amino}-thiophene-2-carboxylic acid] | 96.4
Cn1nccc1S(=O)(=O)N1CCC(N(c2cc(C#CC(C)(C)C)sc2C(=O)O)C(=O)[C@H]2CC[C@H](C)CC2)CC1 [Compound 203, 5-(3,3-Dimethyl-but-1-ynyl)-3-{(4-methyl-cyclohexanecarbonyl)-[1-(2-methyl-2H-pyrazole-3-sulfonyl)-piperidin-4-yl]-amino}-thiophene-2-carboxylic acid] | 99.8
CN(C)c1ncc(S(=O)(=O)N2CCC(N(c3cc(C#CC(C)(C)C)sc3C(=O)O)C(=O)[C@H]3CC[C@H](C)CC3)CC2)cn1 [Compound 204, 3-[[1-(2-Dimethylamino-pyrimidine-5-sulfonyl)-piperidin-4-yl]-(4-methyl-cyclohexanecarbonyl)-amino]-5-(3,3-dimethyl-but-1-ynyl)-thiophene-2-carboxylic acid] | 99.1
CC(C)(C)C#Cc1cc(N(C(=O)[C@H]2CC[C@H](C)CC2)C2CCN(S(=O)(=O)c3ccsc3)CC2)c(C(=O)O)s1 [Compound 205, 5-(3,3-Dimethyl-but-1-ynyl)-3-{(4-methyl-cyclohexanecarbonyl)-[1-(thiophene-3-sulfonyl)-piperidin-4-yl]-amino}-thiophene-2-carboxylic acid] | 99.9
